According to patent US5698522A, “6-position modified decapeptide LHRH antagonists” (Abbott Laboratories, priority 1995, dated 1997):
*1 amine or outer side, *2 acyl side, *3 side chain or, on linkers, in order; H or OH if unused. Where a SMILES comes first, the peptide text is derived from it. Side-chain parts run from the residue outwards. [ ]: non-standard residue; d: D form. The star is where a group is joined. NMePhe(4-NH(5-NH2-Trz-3-yl)) = CN[C@@H](Cc1ccc(Nc2n[nH]c(N)n2)cc1)C(=O)O; Shikimoyl = O=C(C1=C[C@@H](O)[C@@H](O)[C@H](O)C1)*; X5 = O=C(NCCCN*)C1=C[C@@H](O)[C@@H](O)[C@H](O)C1; dPhe(4-Cl) = N[C@H](Cc1ccc(Cl)cc1)C(=O)O; d2Nal = N[C@H](Cc1ccc2ccccc2c1)C(=O)O; Lys(iPr) = CC(C)NCCCC[C@H](N)C(=O)O; NMeY = CN[C@@H](Cc1ccc(O)cc1)C(=O)O; Ethylenediamine = C(CN[*:2])N[*:1]; Pyrazinecarbonyl = O=C(c1cnccn1)*; hArg = N=C(N)NCCCC[C@H](N)C(=O)O; d3Pal = N[C@H](Cc1cccnc1)C(=O)O; Nicotinoyl = O=C(c1cccnc1)*; Picolinoyl = O=C(c1ccccn1)*; X1 = O=C(c1cc2ccccc2cc1O)*; X4 = Nc1nc(NCC(=O)*)n[nH]1; 2Furoyl = O=C(c1ccco1)*; CO = O=C([*:1])[*:2]; azaGly = NNC(=O)O; Sar = CNCC(=O)O

Target: T1, LHRH receptor (Rattus norvegicus, UniProt P30969)
T1 construct: endogenous in cells
T1 sequence (P30969 1-327): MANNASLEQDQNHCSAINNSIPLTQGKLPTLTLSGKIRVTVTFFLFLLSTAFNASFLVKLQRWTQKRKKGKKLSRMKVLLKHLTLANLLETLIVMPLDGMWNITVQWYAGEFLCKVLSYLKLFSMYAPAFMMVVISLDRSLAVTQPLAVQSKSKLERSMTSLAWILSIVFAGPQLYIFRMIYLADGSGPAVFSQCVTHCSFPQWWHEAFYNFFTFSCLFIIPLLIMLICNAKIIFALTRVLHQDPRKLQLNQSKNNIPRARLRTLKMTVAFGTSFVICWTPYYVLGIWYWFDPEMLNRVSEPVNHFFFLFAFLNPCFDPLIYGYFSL
Test: in vitro LHRH antagonist potency (pA2) against the agonist leuprolide
Type: cell-based
Details: negative logarithm of the antagonist concentration which shifts the response curve produced by the agonist leuprolide to two-fold higher concentration
Procedure, shortened: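 Functional antagonism against the agonist leuprolide. pA2 is the negative log of antagonist concentration that shifts the leuprolide response curve to twofold higher concentration.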

CC(=O)N[C@H](Cc1ccc2ccccc2c1)C(=O)N[C@H](Cc1ccc(Cl)cc1)C(=O)N[C@H](Cc1cccnc1)C(=O)N[C@@H](CO)C(=O)N(C)[C@@H](Cc1ccc(O)cc1)C(=O)N[C@H](CCCCNC(=O)[C@@H](CO)NC(=O)c1cccnc1)C(=O)N[C@@H](CC(C)C)C(=O)N[C@@H](CCCCNC(C)C)C(=O)N1CCC[C@H]1C(=O)N[C@H](C)C(N)=O [Example 4c, NAc-D2Nal^1 -D4ClPhe^2 -D3Pal^3 -Ser^4 -NMeTyr^5 -DLys[N-epsilon-DSer-Nicotinyl]^6 -Leu^7 -Lys(N-epsilon-Isopropyl)^8 -Pro^9 -DAla^10 NH2] (Ac-[d2Nal][dPhe(4-Cl)][d3Pal]S[NMeY][dK]([dS-Nicotinoyl])L[Lys(iPr)]P[dA]-NH2)
Kb: 0.0158 nM

CC(=O)N[C@H](Cc1ccc2ccccc2c1)C(=O)N[C@H](Cc1ccc(Cl)cc1)C(=O)N[C@H](Cc1cccnc1)C(=O)N[C@@H](CO)C(=O)N(C)[C@@H](Cc1ccc(O)cc1)C(=O)N[C@H](CCCCNC(=O)NNC(=O)c1ccco1)C(=O)N[C@@H](CC(C)C)C(=O)N[C@@H](CCCCNC(C)C)C(=O)N1CCC[C@H]1C(=O)N(C)CC(N)=O [Example 59, NAc-D2Nal^1 -D4ClPhe^2 -D3Pal^3 -Ser^4 -NMeTyr^5 -DLys(N-epsilon-Azagly-Fur-2-oyl)^6 -Leu^7 -Lys(N-epsilon-Isopropyl)^8 -Pro^9 -Sar^10 NH2] (Ac-[d2Nal][dPhe(4-Cl)][d3Pal]S[NMeY][dK]([azaGly-2Furoyl])L[Lys(iPr)]P[Sar]-NH2)
Kb: 0.0363 nM

CC(=O)N[C@H](Cc1ccc2ccccc2c1)C(=O)N[C@H](Cc1ccc(Cl)cc1)C(=O)N[C@H](Cc1cccnc1)C(=O)N[C@@H](CO)C(=O)N(C)[C@@H](Cc1ccc(O)cc1)C(=O)N[C@H](CCCCNC(=O)[C@@H](C)NC(=O)C1=C[C@@H](O)[C@@H](O)[C@H](O)C1)C(=O)N[C@@H](CC(C)C)C(=O)N[C@@H](CCCNC(=N)N)C(=O)N1CCC[C@H]1C(=O)N[C@H](C)C(N)=O [Example 38a, NAc-D2Nal^1 -D4ClPhe^2 -D3Pal^3 -Ser^4 -NMeTyr^5 -DLys(N-epsilon-DAla-Shikimyl)^6 -Leu^7 -Arg^8 -Pro^9 -DAla^10 NH2] (Ac-[d2Nal][dPhe(4-Cl)][d3Pal]S[NMeY][dK]([dA-Shikimoyl])LRP[dA]-NH2)
Kb: 0.0282 nM

CC(=O)N[C@H](Cc1ccc2ccccc2c1)C(=O)N[C@H](Cc1ccc(Cl)cc1)C(=O)N[C@H](Cc1cccnc1)C(=O)N[C@@H](CO)C(=O)N(C)[C@@H](Cc1ccc(O)cc1)C(=O)N[C@H](CCCCNC(=O)NNC(=O)c1cc2ccccc2cc1O)C(=O)N[C@@H](CC(C)C)C(=O)N[C@@H](CCCCNC(C)C)C(=O)N1CCC[C@H]1C(=O)N[C@H](C)C(N)=O [Example 5d, NAc-D2Nal^1 -D4ClPhe^2 -D3Pal^3 -Ser^4 -NMeTyr^5 -DLys[N-epsilon-Azagly-(3-OH-2-Naphthoyl)]^6 -Leu^7 -Lys(N-epsilon-Isopropyl)^8 -Pro^9 -DAla^10 NH2] (Ac-[d2Nal][dPhe(4-Cl)][d3Pal]S[NMeY][dK]([azaGly-X1])L[Lys(iPr)]P[dA]-NH2)
Kb: 0.055 nM

CC(=O)N[C@H](Cc1ccc2ccccc2c1)C(=O)N[C@H](Cc1ccc(Cl)cc1)C(=O)N[C@H](Cc1cccnc1)C(=O)N[C@@H](CO)C(=O)N(C)[C@@H](Cc1ccc(O)cc1)C(=O)N[C@H](CCCCNC(=O)NCCNC(=O)c1cccnc1)C(=O)N[C@@H](CC(C)C)C(=O)N[C@@H](CCCCNC(C)C)C(=O)N1CCC[C@H]1C(=O)N[C@H](C)C(N)=O [Example 62, NAc-D2Nal^1 -D4ClPhe^2 -D3Pal^3 -Ser^4 -NMeTyr^5 -DLys(N-epsilon-N'-Carbonyl-Diaminoethane-N"-Nicotinyl)^6 -Leu^7 -Lys(N-epsilon-Isopropyl)^8 -Pro^9 -DAla^10 NH2] (Ac-[d2Nal][dPhe(4-Cl)][d3Pal]S[NMeY][dK]([CO-Ethylenediamine-Nicotinoyl])L[Lys(iPr)]P[dA]-NH2)
Kb: 0.0263 nM

CC(=O)N[C@H](Cc1ccc2ccccc2c1)C(=O)N[C@H](Cc1ccc(Cl)cc1)C(=O)N[C@H](Cc1cccnc1)C(=O)N[C@@H](CO)C(=O)N(C)[C@@H](Cc1ccc(O)cc1)C(=O)N[C@H](CCCCNC(=O)CNC(=O)c1ccccn1)C(=O)N[C@@H](CC(C)C)C(=O)N[C@@H](CCCNC(=N)N)C(=O)N1CCC[C@H]1C(=O)N[C@H](C)C(N)=O [Example 48a, NAc-D2Nal^1 -D4ClPhe^2 -D3Pal^3 -Ser^4 -NMeTyr^5 -DLys(N-epsilon-Gly-Picolinyl)^6 -Leu^7 -Arg^8 -Pro^9 -DAla^10 NH2] (Ac-[d2Nal][dPhe(4-Cl)][d3Pal]S[NMeY][dK]([Gly-Picolinoyl])LRP[dA]-NH2)
Kb: 0.00794 nM

CC(=O)N[C@H](Cc1ccc2ccccc2c1)C(=O)N[C@H](Cc1ccc(Cl)cc1)C(=O)N[C@H](Cc1cccnc1)C(=O)N[C@@H](CO)C(=O)N(C)[C@@H](Cc1ccc(O)cc1)C(=O)N[C@H](CCCCNC(=O)[C@@H](C)NC(=O)C1=C[C@@H](O)[C@@H](O)[C@H](O)C1)C(=O)N[C@@H](CC(C)C)C(=O)N[C@@H](CCCNC(=N)N)C(=O)N1CCC[C@H]1C(=O)N[C@H](C)C(N)=O [Example 48d, NAc-D2Nal^1 -D4ClPhe^2 -D3Pal^3 -Ser^4 -NMeTyr^5 -DLys(N-epsilon-D-Ala-Shikimyl)^6 -Leu^7 -Arg^8 -Pro^9 -DAla^10 NH2] (Ac-[d2Nal][dPhe(4-Cl)][d3Pal]S[NMeY][dK]([dA-Shikimoyl])LRP[dA]-NH2)
Kb: 0.0126 nM

CC(=O)N[C@H](Cc1ccc2ccccc2c1)C(=O)N[C@H](Cc1ccc(Cl)cc1)C(=O)N[C@H](Cc1cccnc1)C(=O)N[C@@H](CO)C(=O)N(C)[C@@H](Cc1ccc(O)cc1)C(=O)N[C@H](CCCCNC(=O)NCCNC(=O)C1=C[C@@H](O)[C@@H](O)[C@H](O)C1)C(=O)N[C@@H](CC(C)C)C(=O)N[C@@H](CCCNC(=N)N)C(=O)N1CCC[C@H]1C(=O)N[C@H](C)C(N)=O [Example 15, NAc-D2Nal^1 -D4ClPhe^2 -D3Pal^3 -Ser^4 -NMeTyr^5 -DLys[N-epsilon-(N'-Carbonyl-Diaminoethane-N"-Shikimyl)]^6 -Leu^7 -Arg^8 -Pro^9 -DAla^10 NH2] (Ac-[d2Nal][dPhe(4-Cl)][d3Pal]S[NMeY][dK]([CO-Ethylenediamine-Shikimoyl])LRP[dA]-NH2)
Kb: 0.00282 nM

CC(=O)N[C@H](Cc1ccc2ccccc2c1)C(=O)N[C@H](Cc1ccc(Cl)cc1)C(=O)N[C@H](Cc1cccnc1)C(=O)N[C@@H](CO)C(=O)N(C)[C@@H](Cc1ccc(O)cc1)C(=O)N[C@H](CCCCNC(=O)CNC(=O)c1cnccn1)C(=O)N[C@@H](CC(C)C)C(=O)N[C@@H](CCCNC(=N)N)C(=O)N1CCC[C@H]1C(=O)N[C@H](C)C(N)=O [Example 51e, NAc-D2Nal^1 -D4ClPhe^2 -D3Pal^3 -Ser^4 -NMeTyr^6 -DLys(N-epsilon-Gly-2-Pyrazinecarbonyl)^6 -Leu^7 -Arg^8 -Pro^9 -DAla^10 NH2] (Ac-[d2Nal][dPhe(4-Cl)][d3Pal]S[NMeY][dK]([Gly-Pyrazinecarbonyl])LRP[dA]-NH2)
Kb: 0.00692 nM

CC(=O)N[C@H](Cc1ccc2ccccc2c1)C(=O)N[C@H](Cc1ccc(Cl)cc1)C(=O)N[C@H](Cc1cccnc1)C(=O)N[C@@H](CO)C(=O)N(C)[C@@H](Cc1ccc(Nc2n[nH]c(N)n2)cc1)C(=O)N[C@H](CCCCNC(=O)CNc1n[nH]c(N)n1)C(=O)N[C@@H](CC(C)C)C(=O)N[C@@H](CCCCNC(C)C)C(=O)N1CCC[C@H]1C(=O)N[C@H](C)C(N)=O [Example 63, NAc-D2Nal^1 -D4ClPhe^2 -D3Pal^3 -Ser^4 -NMePhe(Atz)^5 -DLys(N-epsilon-N'-Gly-Atz)^6 -Leu^7 -Lys(N-epsilon-Isopropyl)^8 -Pro^9 -DAla^10 NH2] (Ac-[d2Nal][dPhe(4-Cl)][d3Pal]S[NMePhe(4-NH(5-NH2-Trz-3-yl))][dK](X4)L[Lys(iPr)]P[dA]-NH2)
Kb: 0.00447 nM

CC(=O)N[C@H](Cc1ccc2ccccc2c1)C(=O)N[C@H](Cc1ccc(Cl)cc1)C(=O)N[C@H](Cc1cccnc1)C(=O)N[C@@H](CO)C(=O)N(C)[C@@H](Cc1ccc(O)cc1)C(=O)N[C@H](CCCCNC(=O)[C@@H](CO)NC(=O)CNC(=O)c1cccnc1)C(=O)N[C@@H](CC(C)C)C(=O)N[C@@H](CCCNC(=N)N)C(=O)N1CCC[C@H]1C(=O)N[C@H](C)C(N)=O [Example 48k, NAc-D2Nal^1 -D4ClPhe^2 -D3Pal^3 -Ser^4 -NMeTyr^5 -DLys(N-epsilon-D-Ser-Gly-Nicotinyl)^6 -Leu^7 -Arg^8 -Pro^9 -DAla^10 NH2] (Ac-[d2Nal][dPhe(4-Cl)][d3Pal]S[NMeY][dK]([dS-Gly-Nicotinoyl])LRP[dA]-NH2)
Kb: 0.017 nM

CC(=O)N[C@H](Cc1ccc2ccccc2c1)C(=O)N[C@H](Cc1ccc(Cl)cc1)C(=O)N[C@H](Cc1cccnc1)C(=O)N[C@@H](CO)C(=O)N(C)[C@@H](Cc1ccc(O)cc1)C(=O)N[C@H](CCCCNC(=O)NCCCNC(=O)C1=C[C@@H](O)[C@@H](O)[C@H](O)C1)C(=O)N[C@@H](CC(C)C)C(=O)N[C@@H](CCCNC(=N)N)C(=O)N1CCC[C@H]1C(=O)N[C@H](C)C(N)=O [Example 42, NAc-D2Nal^1 -D4ClPhe^2 -D3Pal^3 -Ser^4 -NMeTyr^5 -DLys[N-epsilon-(N'-Carbonyl-Diaminopropane-N"-Shikimyl)]^6 -Leu^7 -Arg^8 -Pro^9 -DAla^10 NH2] (Ac-[d2Nal][dPhe(4-Cl)][d3Pal]S[NMeY][dK]([CO-X5])LRP[dA]-NH2)
Kb: 0.0257 nM

CC(=O)N[C@H](CO)C(=O)NCCCC[C@@H](NC(=O)[C@H](Cc1ccc(O)cc1)N(C)C(=O)[C@H](CO)NC(=O)[C@@H](Cc1cccnc1)NC(=O)[C@@H](Cc1ccc(Cl)cc1)NC(=O)[C@@H](Cc1ccc2ccccc2c1)NC(C)=O)C(=O)N[C@@H](CC(C)C)C(=O)N[C@@H](CCCCNC(=N)N)C(=O)N1CCC[C@H]1C(=O)N[C@H](C)C(N)=O [Example 13, NAc-D2Nal^1 -D4ClPhe^2 -D3Pal^3 -Ser^4 -NMeTyr^5 -DLys(N-epsilon-DSer-Acetyl)^6 -Leu^7 -Harg^8 -Pro^9 -DAla^10 NH2] (Ac-[d2Nal][dPhe(4-Cl)][d3Pal]S[NMeY][dK]([dS-Ac])L[hArg]P[dA]-NH2)
Kb: 0.00794 nM
